We go through five compounds from ChEMBL document CHEMBL5724914, “Linking interpersonal differences in gut microbiota composition and drug biotransformation activity” (2024).

For data set [1] the following is noted: human gut metagenome, 24 h, 2 µM.
Data set [2] is described as follows: The drug is tested on Z-030 corresponding to mouse gut metagenome with ENA study accession number: PRJEB37062 and ENA sample accession number: ERS12561829 for biotransformation under anaerobic condition. The drug concentrations were measured over 9 timepoints collected between 0 and 24 hours of incubation by liquid-chromatography-coupled mass spectrometry (LC–MS). The settings on record: 2 µM.

The conditions of data set [3]: human gut metagenome, 24 h, 2 µM. This is another data set of the same source.
For data set [4] the following is noted: human gut metagenome, 24 h, 2 µM. This is another data set of the same source.
Data set [5] is described as follows: The drug is tested on Z-017 corresponding to mouse gut metagenome with ENA study accession number: PRJEB37062 and ENA sample accession number: ERS12561816 for biotransformation under anaerobic condition. The drug concentrations were measured over 9 timepoints collected between 0 and 24 hours of incubation by liquid-chromatography-coupled mass spectrometry (LC–MS). Particulars: 2 µM.

Data set [6] is described as follows: The drug is tested on Z-013 corresponding to rabbit gut metagenome with ENA study accession number: PRJEB37062 and ENA sample accession number: ERS12561813 for biotransformation under anaerobic condition. The drug concentrations were measured over 9 timepoints collected between 0 and 24 hours of incubation by liquid-chromatography-coupled mass spectrometry (LC–MS). Particulars: 2 µM.

The conditions of data set [7]: human gut metagenome, 24 h, 2 µM. This is another data set of the same source.
For data set [8] the following is noted: human gut metagenome, 24 h, 2 µM. This is another data set of the same source.
The conditions of data set [9]: human gut metagenome, 24 h, 2 µM. The source holds these as a separate data set.
For data set [10] the following is noted: human gut metagenome, 24 h, 2 µM. This is another data set of the same source.
A short description of data set [11]: The drug is tested on WLS-240 corresponding to human gut metagenome with ENA study accession number: PRJEB37062 and ENA sample accession number: ERS12561773 for biotransformation under anaerobic condition. The drug concentrations were measured over 9 timepoints collected between 0 and 24 hours of incubation by liquid-chromatography-coupled mass spectrometry (LC–MS). Particulars: 2 µM.

A short description of data set [12]: The drug is tested on Z-010 corresponding to metagenome with ENA study accession number: PRJEB37062 and ENA sample accession number: ERS12561810 for biotransformation under anaerobic condition. The drug concentrations were measured over 9 timepoints collected between 0 and 24 hours of incubation by liquid-chromatography-coupled mass spectrometry (LC–MS). Particulars: 2 µM.

The nature of data set [13]: The drug is tested on Z-025 corresponding to rabbit gut metagenome with ENA study accession number: PRJEB37062 and ENA sample accession number: ERS12561824 for biotransformation under anaerobic condition. The drug concentrations were measured over 9 timepoints collected between 0 and 24 hours of incubation by liquid-chromatography-coupled mass spectrometry (LC–MS). Particulars: 2 µM.

Data set [14] is described as follows: The drug is tested on Z-011 corresponding to mouse gut metagenome with ENA study accession number: PRJEB37062 and ENA sample accession number: ERS12561811 for biotransformation under anaerobic condition. The drug concentrations were measured over 9 timepoints collected between 0 and 24 hours of incubation by liquid-chromatography-coupled mass spectrometry (LC–MS). The settings on record: 2 µM.

The nature of data set [15]: The drug is tested on Z-023 corresponding to metagenome with ENA study accession number: PRJEB37062 and ENA sample accession number: ERS12561822 for biotransformation under anaerobic condition. The drug concentrations were measured over 9 timepoints collected between 0 and 24 hours of incubation by liquid-chromatography-coupled mass spectrometry (LC–MS). Particulars: 2 µM.

Data set [16] is described as follows: The drug is tested on WLS-090 corresponding to human gut metagenome with ENA study accession number: PRJEB37062 and ENA sample accession number: ERS12561753 for biotransformation under anaerobic condition. The drug concentrations were measured over 9 timepoints collected between 0 and 24 hours of incubation by liquid-chromatography-coupled mass spectrometry (LC–MS). The settings on record: 2 µM.

Data set [17] in a line: The drug is tested on Z-009 corresponding to pig gut metagenome with ENA study accession number: PRJEB37062 and ENA sample accession number: ERS12561809 for biotransformation under anaerobic condition. The drug concentrations were measured over 9 timepoints collected between 0 and 24 hours of incubation by liquid-chromatography-coupled mass spectrometry (LC–MS). Particulars: 2 µM.

The nature of data set [18]: The drug is tested on Z-003 corresponding to pig gut metagenome with ENA study accession number: PRJEB37062 and ENA sample accession number: ERS12561803 for biotransformation under anaerobic condition. The drug concentrations were measured over 9 timepoints collected between 0 and 24 hours of incubation by liquid-chromatography-coupled mass spectrometry (LC–MS). Particulars: 2 µM.

A short description of data set [19]: The drug is tested on WLS-220 corresponding to human gut metagenome with ENA study accession number: PRJEB37062 and ENA sample accession number: ERS12561769 for biotransformation under anaerobic condition. The drug concentrations were measured over 9 timepoints collected between 0 and 24 hours of incubation by liquid-chromatography-coupled mass spectrometry (LC–MS). The settings on record: 2 µM.

The conditions of data set [20]: human gut metagenome, 24 h, 2 µM. This is another data set of the same source.
Note: call rule not given here.

As to `CC(=O)CCCCn1c(=O)c2c(ncn2C)n(C)c1=O` [PENTOXIFYLLINE], the “Bacterial Biotransformation” value in [1], in data set [2], in data set [3], in [4], in [5] and in [6] was “Compound NOT metabolized” throughout. The “Bacterial Biotransformation” value was “Compound NOT metabolized” in [7]; “Compound NOT metabolized” in [8]; “Compound NOT metabolized” in data set [9]; “Compound NOT metabolized” in [10]; “Compound metabolized” in data set [11]; “Compound NOT metabolized” in [12]. The “Bacterial Biotransformation” value is on record as “Compound NOT metabolized” in data set [13]; “Compound NOT metabolized” in data set [14]; “Compound NOT metabolized” in [15]; “Compound metabolized” in data set [16]; “Compound NOT metabolized” in [17]; “Compound NOT metabolized” in [18]. Besides, the “Bacterial Biotransformation” value in data set [19] and in data set [20] was “Compound NOT metabolized” each time.
`CCCN1C[C@H](CSC)C[C@@H]2c3cccc4[nH]cc(c34)C[C@H]21.CS(=O)(=O)O` [PERGOLIDE MESYLATE]: the “Bacterial Biotransformation” value in data set [1], in data set [2], in data set [3], in data set [4], in data set [5] and in data set [6] was “Compound NOT metabolized” throughout. Besides, the “Bacterial Biotransformation” value in data set [7], in data set [8], in data set [9], in [10], in [11] and in data set [12] was “Compound NOT metabolized” each time. For the same compound, the “Bacterial Biotransformation” value is listed as “Compound metabolized” in [13]; “Compound NOT metabolized” in data set [14]; “Compound NOT metabolized” in [15]; “Compound NOT metabolized” in [16]; “Compound NOT metabolized” in data set [17]; “Compound NOT metabolized” in [18]. Besides, the “Bacterial Biotransformation” value in data set [19] and in data set [20] was “Compound NOT metabolized” in each case.
On to `CC(C)(C)N.CCC[C@H](N[C@@H](C)C(=O)N1[C@H](C(=O)O)C[C@@H]2CCCC[C@@H]21)C(=O)OCC` [PERINDOPRIL ERBUMINE], for which the “Bacterial Biotransformation” value was “Compound NOT metabolized” in data set [1]; “Compound NOT metabolized” in data set [2]; “Compound metabolized” in data set [3]; “Compound metabolized” in [4]; “Compound NOT metabolized” in data set [5]; “Compound NOT metabolized” in data set [6]. The “Bacterial Biotransformation” value is on record as “Compound metabolized” in [7]; “Compound metabolized” in [8]; “Compound NOT metabolized” in data set [9]; “Compound metabolized” in data set [10]; “Compound metabolized” in data set [11]; “Compound metabolized” in data set [12]. Further, the “Bacterial Biotransformation” value in data set [13] is reported as “Compound NOT metabolized”; in data set [14], “Compound NOT metabolized”; in data set [15], “Compound metabolized”; in data set [16], “Compound metabolized”; in data set [17], “Compound metabolized”; in data set [18] it was “Compound metabolized”. Moreover, the “Bacterial Biotransformation” value in data set [19] and in data set [20] was “Compound metabolized” throughout.
In the case of `COc1cc(NC(C)CCCN)c2ncccc2c1.O=P(O)(O)O.O=P(O)(O)O` (stereo not given) [PRIMAQUINE PHOSPHATE], the “Bacterial Biotransformation” value in data set [1] was “Compound NOT metabolized”; in data set [2], “Compound NOT metabolized”; in data set [3] it was “Compound metabolized”; in [4], “Compound metabolized”; in data set [5], “Compound NOT metabolized”; in data set [6], “Compound NOT metabolized”. The “Bacterial Biotransformation” value was “Compound metabolized” in data set [7]; “Compound NOT metabolized” in [8]; “Compound NOT metabolized” in data set [9]; “Compound metabolized” in data set [10]; “Compound metabolized” in [11]; “Compound NOT metabolized” in data set [12]. In addition, the “Bacterial Biotransformation” value in [13] is listed as “Compound metabolized”; in [14], “Compound NOT metabolized”; in [15], “Compound NOT metabolized”; in [16] it was “Compound metabolized”; in data set [17] it was “Compound NOT metabolized”; in [18], “Compound NOT metabolized”. The figures for the “Bacterial Biotransformation” value in data set [19] and in data set [20] were “Compound metabolized” and “Compound NOT metabolized”, respectively.
For `C=C[C@H]1CN2CC[C@H]1C[C@H]2[C@H](O)c1ccnc2ccc(OC)cc12.C=C[C@H]1CN2CC[C@H]1C[C@H]2[C@H](O)c1ccnc2ccc(OC)cc12.O.O.O=S(=O)(O)O` [QUININE SULFATE], the “Bacterial Biotransformation” value in data set [1], in [2], in data set [3], in [4], in data set [5] and in [6] was “Compound NOT metabolized” each time. Moreover, the “Bacterial Biotransformation” value in data set [7], in data set [8], in data set [9], in data set [10], in data set [11] and in data set [12] was “Compound metabolized” throughout. Besides, the “Bacterial Biotransformation” value is listed as “Compound NOT metabolized” in [13]; “Compound NOT metabolized” in data set [14]; “Compound NOT metabolized” in data set [15]; “Compound metabolized” in data set [16]; “Compound NOT metabolized” in data set [17]; “Compound NOT metabolized” in [18]. Also, the “Bacterial Biotransformation” value in data set [19] and in [20] was “Compound metabolized” in each case.
